Read-outs that look alike come from different tables or passages of the source.
How the values were obtained:
[1] = tested on: LLCPK cells conditionally expressing hLAT1; test: cells; details: 0.5 h, read-out: LC50, concentration of test compound at which the percent surviving cells was 50%
[2] = target: T1, hLAT1 (Homo sapiens, UniProt Q01650); test: LAT1 uptake inhibition assay, radiolabeled competition uptake with [3H]-Gabapentin; format: cell-based
T1 construct: expressed in transfected cells; host or cells: LLCPK cells, tetracycline/doxycycline-inducible, boosted with sodium butyrate
T1 sequence (Q01650 whole entry, one chain of several): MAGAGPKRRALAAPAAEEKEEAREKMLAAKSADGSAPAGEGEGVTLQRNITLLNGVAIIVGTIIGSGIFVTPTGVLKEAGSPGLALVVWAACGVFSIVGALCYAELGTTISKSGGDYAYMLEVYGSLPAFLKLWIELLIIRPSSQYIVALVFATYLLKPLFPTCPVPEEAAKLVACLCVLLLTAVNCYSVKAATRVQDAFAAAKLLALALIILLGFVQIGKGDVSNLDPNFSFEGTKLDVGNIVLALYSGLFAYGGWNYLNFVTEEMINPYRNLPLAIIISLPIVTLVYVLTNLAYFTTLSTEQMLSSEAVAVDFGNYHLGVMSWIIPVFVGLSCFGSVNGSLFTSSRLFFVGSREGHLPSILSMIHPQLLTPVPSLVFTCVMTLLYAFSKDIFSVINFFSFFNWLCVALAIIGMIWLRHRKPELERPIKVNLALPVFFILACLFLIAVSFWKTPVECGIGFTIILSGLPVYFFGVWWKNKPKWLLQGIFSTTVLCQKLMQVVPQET

[3] = target: T2, hLAT2 (Homo sapiens, UniProt Q9UHI5); test: LAT2 uptake inhibition assay, radiolabeled competition uptake with [3H]-leucine; format: cell-based
T2 construct: expressed in transfected cells; host or cells: KB or LLCPK cells, tetracycline/doxycycline-inducible
T2 sequence (Q9UHI5 1-535): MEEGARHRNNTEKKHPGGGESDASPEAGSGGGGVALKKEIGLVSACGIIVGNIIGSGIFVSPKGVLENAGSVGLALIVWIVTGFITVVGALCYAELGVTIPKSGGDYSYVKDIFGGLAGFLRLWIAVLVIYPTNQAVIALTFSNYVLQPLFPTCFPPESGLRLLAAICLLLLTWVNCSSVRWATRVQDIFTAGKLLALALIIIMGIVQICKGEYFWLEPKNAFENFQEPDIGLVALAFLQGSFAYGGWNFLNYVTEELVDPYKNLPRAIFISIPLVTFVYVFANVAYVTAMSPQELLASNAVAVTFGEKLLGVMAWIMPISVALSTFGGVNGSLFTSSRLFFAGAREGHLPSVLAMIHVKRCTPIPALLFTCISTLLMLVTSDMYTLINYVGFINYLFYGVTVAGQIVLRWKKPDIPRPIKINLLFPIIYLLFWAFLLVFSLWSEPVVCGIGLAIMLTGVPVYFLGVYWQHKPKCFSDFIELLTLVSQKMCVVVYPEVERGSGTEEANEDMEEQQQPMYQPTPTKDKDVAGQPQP
T2 sequence (P08195 1-630 isoform P08195-1 partner): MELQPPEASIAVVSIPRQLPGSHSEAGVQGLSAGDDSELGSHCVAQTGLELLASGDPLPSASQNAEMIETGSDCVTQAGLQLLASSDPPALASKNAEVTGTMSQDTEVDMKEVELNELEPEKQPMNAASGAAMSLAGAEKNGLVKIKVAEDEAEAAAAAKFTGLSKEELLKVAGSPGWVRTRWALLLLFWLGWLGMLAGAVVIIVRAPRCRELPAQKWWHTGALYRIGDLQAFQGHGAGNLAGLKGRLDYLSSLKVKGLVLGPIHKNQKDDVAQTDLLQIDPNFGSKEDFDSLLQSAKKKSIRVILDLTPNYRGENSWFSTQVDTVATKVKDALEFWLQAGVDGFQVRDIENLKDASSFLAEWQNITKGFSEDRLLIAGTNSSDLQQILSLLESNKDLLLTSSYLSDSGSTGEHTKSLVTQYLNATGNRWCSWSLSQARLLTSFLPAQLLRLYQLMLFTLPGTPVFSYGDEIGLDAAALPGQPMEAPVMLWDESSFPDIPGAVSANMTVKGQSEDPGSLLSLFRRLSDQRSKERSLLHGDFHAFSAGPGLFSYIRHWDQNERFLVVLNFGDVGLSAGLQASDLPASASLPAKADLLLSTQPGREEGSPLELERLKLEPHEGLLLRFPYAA

[4] = tested on: LN229; test: cells; format: cell-based; details: Homo sapiens, LN-229, read-out: IC50 (in vitro toxicity)
[5] = tested on: MDA-MB-231; test: cells; format: cell-based; details: Homo sapiens, MDA-MB-231, read-out: IC50 (in vitro toxicity)
[6] = tested on: D283; test: cells; format: cell-based; details: D283, read-out: IC50 (in vitro toxicity)
[7] = tested on: 42MGBA; test: cells; format: cell-based; details: read-out: IC50 (in vitro toxicity)
[8] = tested on: MV411; test: cells; format: cell-based; details: Homo sapiens, MV4-11, read-out: IC50 (in vitro toxicity)
[9] = tested on: U251 MG; test: Orthotopic glioblastoma study (Example 84); format: in vivo, mouse; details: at a dose of 10 mg/kg, IV
Method: The efficacy of compounds provided by the present disclosure was evaluated using an orthotopic luciferase human glioblastoma model—U251 MG. Human glioblastoma cells were intracolonically injected (3×10^5 cells/3 μL) into athymic mice (female, 4-5 weeks-old, nu/un homozygous). Treatment began when the BLI reached a log-phase growth, at about 14 days after injection. Ten mice were assigned to each arm of the study. The mice were dosed with vehicle (IP, once weekly for 4 weeks), compound (5) (5 mg/kg, IV once weekly for 4 weeks), compound (5) (10 mg/kg, IV once weekly for 4 weeks), compound (40) (10 mg/kg, IV once weekly for 4 weeks), or compound (50) (20 mg/kg, IV single dose). The tumor volume was measured using bioluminescence imaging.

[10] = tested on: MCF7; test: In vitro cytotoxicity, MCF7; format: cell-based; details: Homo sapiens, MCF7, read-out: IC50 (in vitro toxicity)
[11] = tested on: U251; test: cells; format: cell-based; details: Homo sapiens, U-251, read-out: IC50 (in vitro toxicity)
[12] = tested on: Human prostate cancer PC3 cells; details: mouse, in vivo
[13] = tested on: Raji; test: cells; format: cell-based; details: Homo sapiens, read-out: IC50 (in vitro toxicity)
[14] = tested on: HCT116; test: In vitro cytotoxicity, HCT116; format: cell-based; details: Homo sapiens, HCT-116, read-out: IC50 (in vitro toxicity)
[15] = tested on: G55; test: cells; format: cell-based; details: read-out: IC50 (in vitro toxicity)
[16] = tested on: PC3; test: cells; format: cell-based; details: Homo sapiens, PC-3, read-out: IC50 (in vitro toxicity)
[17] = tested on: DBRTG; test: cells; format: cell-based; details: read-out: IC50 (in vitro toxicity)
[18] = tested on: 794; test: cells; format: cell-based; details: read-out: IC50 (in vitro toxicity)
[19] = LAT1-expressing cells, increasing concentration of test compound, read-out: IC50, concentration of test compound at which the [3H]-GP was inhibited by 50%
[20] = KB cells, read-out: IC50, concentration of test compound at which the [3H]-Leu was inhibited by 50%

`Cc1ccc(N(CCCl)CCCl)cc1CC(N)CC(=O)O` (racemic) [Compound 3, 3-Amino-4-[5-[bis(2-chloroethyl)amino]-2-methyl-phenyl]butanoic Acid] showed a CC50 [1] of under 1 µM.

`Cc1ccc(C(=O)N[C@@H](CC(C)C)C(=O)C2(C)CO2)cc1C[C@H](N)CC(=O)O` (stereo in doubt) [Compound 63, (3S)-3-amino-4-[2-methyl-5-[[(1S)-3-methyl-1-[(2R)-2-methyloxirane-2-carbonyl]butyl]carbamoyl]phenyl]butanoic acid] gave an IC50 [2, 19] of under 100 µM and an IC50 [3, 20] of under 100 µM.

Work on `Cc1ccc(N(CCBr)CCOS(C)(=O)=O)cc1C[C@H](N)CC(=O)O` [Compound 20, (3S)-3-Amino-4-[5-(2-bromoethyl(2-methylsulfonyloxyethyl)amino)-2-methyl-phenyl]butanoic Acid] yielded an IC50 [3] of under 100 µM.

With `Cc1ccc(N(CCCl)CCCl)cc1NC(=O)[C@H](N)CC(=O)O` [Compound 22, (3R)-3-Amino-4-[[5-[bis(2-chloroethyl)amino]-2-methyl-phenyl]amino]-4-oxo-butanoic Acid] the CC50 [1] was under 1 µM and the IC50 [3] was under 100 µM.

With `Cc1cc(N(CCCl)CCCl)ccc1OC[C@H](N)CC(=O)O` [Compound 27, (3R)-3-Amino-4-[4-[bis(2-chloroethyl)amino]-2-methyl-phenoxy]butanoic Acid] the CC50 [1] was under 1 µM.

For `Cc1ccc(OC(=O)N(CCCl)CCCl)cc1C[C@H](N)CC(=O)O` [Compound 29, (3S)-3-Amino-4-[5-[bis(2-chloroethyl)carbamoyloxy]-2-methyl-phenyl]butanoic Acid], the IC50 [2] was under 100 µM.

Compound `Cc1ccc(COC(=O)N(CCCl)CCCl)cc1C[C@H](N)CC(=O)O` [Compound 30, (3S)-3-Amino-4-[5-[bis(2-chloroethyl)carbamoyloxymethyl]-2-methyl-phenyl]butanoic Acid] has an IC50 [2] of under 100 µM.

For `Cc1ccc(CON(CCCl)CCCl)cc1C[C@H](N)CC(=O)O` [Compound 32, (3S)-3-Amino-4-[5-[bis(2-chloroethyl)aminooxymethyl]-2-methyl-phenyl]butanoic Acid], the IC50 [2] was under 100 µM and the IC50 [3] was under 100 µM.

Work on `CCc1ccc(N(CCCl)CCCl)cc1C[C@H](N)CC(=O)O` [Compound 40, (3S)-3-amino-4-[5-[bis(2-chloroethyl)amino]-2-ethyl-phenyl]butanoic acid] yielded an IC50 [4] of under 100 µM, a CC50 [1] of under 1 µM and an IC50 [5] of under 100 µM. It also gave an IC50 [2] of under 100 µM, an IC50 [6] of under 100 µM and an IC50 [7] of under 100 µM. For the same compound, the IC50 [8] was under 100 µM, the “glioblastoma tumor growth (bioluminescence imaging)” value [9] was “suppressed glioblastoma tumor growth” and the IC50 [10] was under 100 µM. For the same compound, the IC50 [11] was under 100 µM, the body weight [12] was “maintained weight” and the myelosuppression [12] was “not dectected”. The tumor growth suppression [12] was “dose-dependent tumor growth suppression”, the IC50 [13] was under 100 µM and the IC50 [14] was under 100 µM. For the same compound, the IC50 [15] was under 100 µM, the IC50 [16] was under 100 µM and the IC50 [3] was under 100 µM. For the same compound, the IC50 [17] was under 100 µM.

`CCOc1ccc(N(CCCl)CCCl)cc1C[C@H](N)CC(=O)O` [Compound 42, (3S)-3-amino-4-[5-[bis(2-chloroethyl)amino]-2-ethoxy-phenyl]butanoic acid] was tested, and the CC50 [1] was under 1 µM, the IC50 [2] was under 100 µM and the IC50 [3] was under 100 µM.

With `CC(C)Oc1ccc(N(CCCl)CCCl)cc1C[C@H](N)CC(=O)O` [Compound 43, (3S)-3-amino-4-[5-[bis(2-chloroethyl)amino]-2-isopropoxy-phenyl]butanoic acid] the CC50 [1] was under 1 µM, the IC50 [2] was under 100 µM and the IC50 [3] was under 100 µM.

Work on `N[C@H](CC(=O)O)Cc1cc(CON(CCCl)CCCl)ccc1[N+](=O)[O-]` [Compound 45, (3S)-3-amino-4-[5-[bis(2-chloroethyl)aminooxymethyl]-2-nitro-phenyl]butanoic acid] yielded an IC50 [2] of under 100 µM and an IC50 [3] of under 100 µM.

`Cc1ccc(N(CCCl)CCCl)c(C[C@H](N)CC(=O)O)c1` [Compound 50, (3S)-3-amino-4-[2-[bis(2-chloroethyl)amino]-5-methyl-phenyl]butanoic acid] gave an IC50 [4] of under 100 µM, an IC50 [5] of under 100 µM and an IC50 [6] of under 100 µM. For the same compound, the IC50 [7] was under 100 µM, the IC50 [8] was under 100 µM and the “glioblastoma tumor growth (bioluminescence imaging)” value [9] was “suppressed glioblastoma tumor growth”. It also gave an IC50 [10] of under 100 µM, an IC50 [11] of under 100 µM and an IC50 [13] of under 100 µM. For the same compound, the IC50 [18] was under 100 µM, the IC50 [14] was under 100 µM and the IC50 [15] was under 100 µM. It also gave an IC50 [16] of under 100 µM, an IC50 [3] of under 100 µM and an IC50 [17] of under 100 µM.

`N[C@H](CC(=O)O)Cc1cc(CO)ccc1N(CCCl)CCCl` [Compound 52, (3S)-3-amino-4-[2-[bis(2-chloroethyl)amino]-5-(hydroxymethyl)phenyl]butanoic acid] gave a CC50 [1] of under 1 µM and an IC50 [3] of under 100 µM.

For `N[C@H](CC(=O)O)Cc1cc(N(CCCl)CCCl)ccc1N(CCCl)CCCl` [Compound 53, (3S)-3-amino-4-[2,5-bis[bis(2-chloroethyl)amino]phenyl]butanoic acid], the CC50 [1] was under 1 µM and the IC50 [3] was under 100 µM.

`Cc1ccc(NCCCl)cc1C[C@H](N)CC(=O)O` [Compound 54, (3S)-3-amino-4-[5-(2-chloroethylamino]-2-methyl-phenyl]butanoic acid] showed an IC50 [3] of under 100 µM.

In the case of `Cc1ccc(CBr)cc1C[C@H](N)CC(=O)O` [Compound 57, (3S)-3-amino-4-[5-(bromomethyl)-2-methyl-phenyl]butanoic acid], the IC50 [2, 19] is reported as under 100 µM and the IC50 [3, 20] is reported as under 100 µM.

For `Cc1ccc(N(CCO)CCCl)cc1C[C@H](N)CC(=O)O` [Compound 58, (3S)-3-amino-4-[5-(2-chloroethyl(2-hydroxyethyl)amino)-2-methyl-phenyl]butanoic acid], the IC50 [2] was under 100 µM.

Compound `COc1ccc(N(CCO)CCCl)cc1C[C@H](N)CC(=O)O` [Compound 60, (3S)-3-amino-4-[5-(2-chloroethyl (2-hydroxyethyl)amino)-2-methoxy-phenyl]butanoic acid] has an IC50 [2] of under 100 µM and an IC50 [3] of under 100 µM.

With `N[C@@H](COc1cccc(N(CCCl)CCCl)c1)CC(=O)O` [Compound 68, (3R)-3-amino-4-[3-[bis(2-chloroethyl)amino]phenoxy]butanoic acid] the IC50 [2] was under 100 µM.

`N[C@@H](COc1ccc(N(CCCl)CCCl)cc1)CC(=O)O` [Compound 69, (3R)-3-amino-4-[4-[bis(2-chloroethyl)amino]phenoxy]butanoic acid] gave an IC50 [2] of under 100 µM.
